Laboratory results reported in a compilation of properties of binary mixtures (doi:10.1039/b819795b).

Assay: xn = mol fraction of the nth substance listed
Settings: 101 kPa

CCCCCCCC[n+]1ccn(C)c1.F[P-](F)(F)(F)(F)F + CC(C)O
speed of sound [m/s]
Settings | 293.15 K | 298.15 K | 303.15 K
x1 = 0.0004 | 1156 | 1140 | 1121
x1 = 0.0009 | 1157 | 1140 | 1122
x1 = 0.0014 | 1157 | – | 1122
x1 = 0.0024 | 1158 | 1141 | 1123
x1 = 0.003 | 1158 | 1141 | 1123
x1 = 0.0053 | – | 1142 | 1125
x1 = 0.0098 | – | – | 1128
x2 = 0 | 1424 | 1408 | 1393
x2 = 0.0069 | – | 1407 | 1393
x2 = 0.0965 | 1412 | 1397 | 1384
x2 = 0.2012 | 1395 | 1382 | 1368
x2 = 0.304 | 1379 | 1366 | –
x2 = 0.4009 | 1364 | 1351 | 1339
x2 = 0.4943 | 1340 | – | –
x2 = 0.5989 | 1310 | 1296 | –
x2 = 0.6487 | – | 1279 | 1267
x2 = 0.6964 | – | 1261 | 1252
x2 = 0.7469 | – | – | 1235

CCCCCCC + CCCCCCCC[n+]1ccn(C)c1.F[P-](F)(F)(F)(F)F
x1 = 1
Settings | speed of sound [m/s]
293.15 K | 1153
298.15 K | 1131
303.15 K | 1110

CCCCCCCC[n+]1ccn(C)c1.F[P-](F)(F)(F)(F)F + CCCCCC
speed of sound [m/s]
Settings | x2 = 0 | x2 = 0.0468 | x2 = 0.0712 | x2 = 0.0893 | x2 = 0.1268
293.15 K | 1424 | 1408 | 1401 | 1394 | –
298.15 K | 1408 | 1393 | 1385 | – | 1364
303.15 K | 1393 | 1378 | – | 1364 | 1349

CCCCCC + CCCCCCCC[n+]1ccn(C)c1.F[P-](F)(F)(F)(F)F
x1 = 1
Settings | speed of sound [m/s]
293.15 K | 1100
298.15 K | 1078

CCCCCCCC[n+]1ccn(C)c1.F[P-](F)(F)(F)(F)F + CCCCCCC
speed of sound [m/s]
Settings | x2 = 0 | x2 = 0.0074 | x2 = 0.0516 | x2 = 0.0803
293.15 K | 1424 | 1421 | 1406 | –
298.15 K | 1408 | – | 1391 | 1381
303.15 K | – | 1391 | – | 1366

CC(C)O + CCCCCCCC[n+]1ccn(C)c1.F[P-](F)(F)(F)(F)F
Settings | speed of sound [m/s]
293.15 K, x1 = 1 | 1156
